Reference: patent publication US9427415B2, “Methods and compositions for modifying sensorial perception” (The Procter & Gamble Company, priority 2014, dated 2016)
Counter-ions that a name gives are not always drawn. Like-named read-outs stand apart in the source and are kept apart here.

Experiments:
TRPA1V1 = test: Intracellular calcium (Fluo-4, FLIPR) activation of TRPA1V1 cells (co-expressing TRPA1 and TRPV1) by GRAS compounds; format: cell-based, human; conditions: relative to AITC 30 μM;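 also: HEK293 cells co-expressing TRPA1 and TRPV1, fluorescence read at 488/514 nm after baseline subtraction, recorded every 2 s over 10 min, ionomycin 10 µM and buffer as controls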
human TRPA1 = biological target: T1, human TRPA1 (Homo sapiens, UniProt O75762, K186N/R3C/R58T); test: Intracellular calcium (Fluo-4, FLIPR) activation of TRPA1 cells by GRAS compounds; format: cell-based;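 also: TRPA1-expressing cells, fluorescence read on a FLIPR Tetra (ex 488 nm, em 514 nm) every 2 s for 10 min after compound addition, baseline subtracted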
T1 construct: expressed in transfected cells; pcDNA3 control cells

[1] = Table 1(d), 1 mM, relative to AITC 30 μM, read-out: A1 activation, % of agonist value
[2] = Table 1(c), 1 mM, relative to AITC 30 μM
[3] = Table 1(c), 1 mM, relative to AITC 30 μM, read-out: A1 activation, % of agonist value
[4] = Table 1(e), 1 mM, relative to AITC 30 μM, read-out: A1 activation, % of agonist value
[5] = Table 1(c), 100 μM (*), relative to AITC 30 μM

T1 sequence (O75762 whole entry R3C/R58T/K186N): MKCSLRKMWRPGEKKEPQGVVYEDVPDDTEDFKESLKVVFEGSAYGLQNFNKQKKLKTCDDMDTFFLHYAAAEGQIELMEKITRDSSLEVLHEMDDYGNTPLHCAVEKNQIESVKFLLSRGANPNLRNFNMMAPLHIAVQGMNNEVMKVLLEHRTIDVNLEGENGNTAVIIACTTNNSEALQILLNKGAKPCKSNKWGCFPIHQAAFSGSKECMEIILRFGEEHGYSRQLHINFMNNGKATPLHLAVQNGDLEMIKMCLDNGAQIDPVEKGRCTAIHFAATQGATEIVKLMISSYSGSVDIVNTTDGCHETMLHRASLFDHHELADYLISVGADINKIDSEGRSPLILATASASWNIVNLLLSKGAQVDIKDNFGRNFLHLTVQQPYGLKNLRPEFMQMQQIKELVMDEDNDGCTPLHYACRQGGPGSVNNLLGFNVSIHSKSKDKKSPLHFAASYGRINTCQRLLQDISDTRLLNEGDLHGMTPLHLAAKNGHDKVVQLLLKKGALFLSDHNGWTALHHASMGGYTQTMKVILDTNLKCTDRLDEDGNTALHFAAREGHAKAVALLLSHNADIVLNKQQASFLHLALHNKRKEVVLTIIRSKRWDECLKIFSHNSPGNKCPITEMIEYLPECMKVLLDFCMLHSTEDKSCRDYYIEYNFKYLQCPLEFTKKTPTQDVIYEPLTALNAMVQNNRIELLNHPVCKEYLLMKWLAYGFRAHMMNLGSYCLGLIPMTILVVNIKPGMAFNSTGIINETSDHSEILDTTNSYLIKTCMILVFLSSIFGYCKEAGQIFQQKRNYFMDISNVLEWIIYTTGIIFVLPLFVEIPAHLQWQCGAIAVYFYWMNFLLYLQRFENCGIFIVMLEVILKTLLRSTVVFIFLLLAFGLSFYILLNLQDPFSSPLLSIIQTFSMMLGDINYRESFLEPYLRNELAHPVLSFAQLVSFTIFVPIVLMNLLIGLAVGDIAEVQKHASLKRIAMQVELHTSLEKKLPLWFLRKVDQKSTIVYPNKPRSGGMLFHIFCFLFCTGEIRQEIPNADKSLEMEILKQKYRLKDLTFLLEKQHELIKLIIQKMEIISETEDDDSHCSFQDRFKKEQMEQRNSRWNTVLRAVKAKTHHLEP

## CCC/C=C/COC(=O)CCC [trans-2-Hexenyl butyrate]
TRPA1V1; Table 1(d), 1 mM
  A1V1 activation, % of agonist value: 20%
Human TRPA1; [1]
  activation at 1000 µM: 48.9%

## CCCCCCC#CC(=O)OC [Methyl 2-nonynoate]
TRPA1V1; Table 1(d), 1 mM
  A1V1 activation, % of agonist value: 76.1%
Human TRPA1; [1]
  activation at 1000 µM: 101%

## CC(=O)OCc1ccccc1C [O-Methylbenzyl acetate]
TRPA1V1; Table 1(c), 1 mM
  A1V1 activation, % of agonist value: 77.24%
Human TRPA1; [2]
  A1 activation, % of agonist value: 87.22%

## CC(C)OC(=O)Cc1ccccc1 [Isopropyl phenylacetate]
TRPA1V1; Table 1(d), 1 mM
  A1V1 activation, % of agonist value: 60.9%
Human TRPA1; [1]
  activation at 1000 µM: 80.2%

## CC(C)CC=C(C=O)c1ccccc1 [5-Methy1-2-pheny1-2-hexenal]
TRPA1V1; Table 1(e), 1 mM
  A1V1 activation, % of agonist value: 89.8%
Human TRPA1; Table 1(e), 1 mM, relative to AITC 30 μM
  A1 activation, % of agonist value: 60.5%

## CCC(=O)C=CC1C(C)=CCCC1(C)C (centres unmarked)
TRPA1V1; Table 1(d), 1 mM
  A1V1 activation, % of agonist value: 69.7%
Human TRPA1; Table 1(d), 1 mM, relative to AITC 30 μM
  A1 activation, % of agonist value: 97.3%

## CC(=O)c1cc(C)oc1C [3-Acetyl-2,5-dimethylfuran]
TRPA1V1; Table 1(c), 1 mM
  A1V1 activation, % of agonist value: 61%
Human TRPA1; [3]
  activation at 1000 µM: 73.5%

## COc1ccc2ncccc2c1 [6-Methoxyquinoline]
TRPA1V1; Table 1(e), 1 mM
  A1V1 activation, % of agonist value: 130.5%
Human TRPA1; [4]
  activation at 1000 µM: 57.8%

## OCC(=CCc1ccco1)c1ccccc1 [3-(2-Furfuryl)-2-phenylpropenol]
TRPA1V1; Table 1(c), 100 μM (*)
  A1V1 activation, % of agonist value: 72.4%
Human TRPA1; [5]
  A1 activation, % of agonist value: 81.3%

## CC/C=C\CCCCC=O [cis-6-Nonenal]
TRPA1V1; Table 1(c), 1 mM
  A1V1 activation, % of agonist value: 93%
Human TRPA1; [3]
  activation at 1000 µM: 108%

## CNc1ccccc1C(=O)OC [Methyl N-methylanthranilate]
TRPA1V1; Table 1(c), 1 mM
  A1V1 activation, % of agonist value: 86.81%
Human TRPA1; [3]
  activation at 1000 µM: 83.6%

## C=C(C)CCC[C@H](C)CCOC(=O)CC [Rhodinyl propionate]
TRPA1V1; Table 1(c), 1 mM
  A1V1 activation, % of agonist value: 86.44%
Human TRPA1; [2]
  A1 activation, % of agonist value: 75.56%

## C=CCCCCCCCCC=O [10-Undecenal]
TRPA1V1; Table 1(d), 1 mM
  A1V1 activation, % of agonist value: 28%
Human TRPA1; [1]
  activation at 1000 µM: 61.8%

## C=CCCCN=C=S [Isothiocyanic acid 4-penten-1-yl ester]
TRPA1V1; Table 1(c), 100 μM (*)
  A1V1 activation, % of agonist value: 47.3%
TRPA1V1; Table 1(e), 1 mM
  A1V1 activation, % of agonist value: 74.8%
Human TRPA1; Table 1(c), 100 μM (*), relative to AITC 30 μM, read-out: A1 activation, % of agonist value
  activation at 100 µM: 51.6%
Human TRPA1; [4]
  activation at 1000 µM: 62.2%

## CC/C=C/CC/C=C/C=O [(E,E)-2,6-Nonadienal]
TRPA1V1; Table 1(c), 1 mM
  A1V1 activation, % of agonist value: 89.61%
Human TRPA1; [3]
  activation at 1000 µM: 87.1%

## CC=Cc1ccc(OC(=O)Cc2ccccc2)c(OC)c1 [Isoeugenyl phenylacetate]
TRPA1V1; Table 1(c), 1 mM
  A1V1 activation, % of agonist value: 58.40%
Human TRPA1; [3]
  activation at 1000 µM: 59.1%

## CC(S)CS (centres unmarked) [1,2-Propanedithiol]
TRPA1V1; Table 1(c), 100 μM (*)
  A1V1 activation, % of agonist value: 65.4%
TRPA1V1; Table 1(c), 1 mM
  A1V1 activation, % of agonist value: 73.3%
Human TRPA1; [5]
  A1 activation, % of agonist value: 65.8%
Human TRPA1; [2]
  A1 activation, % of agonist value: 66%

## C=CCCN=C=S [3-Butenyl isothiocyanate]
TRPA1V1; Table 1(c), 1 mM
  A1V1 activation, % of agonist value: 85.8%
Human TRPA1; [3]
  activation at 1000 µM: 99.4%

## CCOC(=O)C(Cc1ccccc1)C(C)=O (centres unmarked) [Ethyl 2-benzylacetoacetate]
TRPA1V1; Table 1(c), 1 mM
  A1V1 activation, % of agonist value: 115%
Human TRPA1; read-out: A1 activation, % of agonist value
  activation at 1000 µM: 98%

## C=C(C)CCC[C@H](C)CCOC(=O)CC(C)C [Rhodinyl isovalerate]
TRPA1V1; Table 1(c), 1 mM
  A1V1 activation, % of agonist value: 48.29%
Human TRPA1; [2]
  A1 activation, % of agonist value: 54.92%

## Cc1ccc(O)cc1 [p-Cresol]
TRPA1V1; Table 1(d), 1 mM
  A1V1 activation, % of agonist value: 38.52%
Human TRPA1; [1]
  activation at 1000 µM: 61%

## CC(C)CC(O)Cc1ccccc1 (stereo not drawn) [Alpha-Isobutylphenethyl alcohol]
TRPA1V1; Table 1(c), 1 mM
  A1V1 activation, % of agonist value: 58.62%
Human TRPA1; [3]
  activation at 1000 µM: 73%

## CSSc1ccoc1C [Methyl 2-methyl-3-furyl disulfide]
TRPA1V1; Table 1(c), 1 mM
  A1V1 activation, % of agonist value: 52%
Human TRPA1; [3]
  activation at 1000 µM: 52.6%

## CCCC(CCOC(C)=O)SC (centres unmarked) [3-(Methylthio)hexyl acetate]
TRPA1V1; Table 1(c), 1 mM
  A1V1 activation, % of agonist value: 87.6%
Human TRPA1; [3]
  activation at 1000 µM: 97.9%

## CC(C)CCN=C=S [3-Methylbutyl isothiocyanate]
TRPA1V1; Table 1(e), 1 mM
  A1V1 activation, % of agonist value: 111.2%
Human TRPA1; [4]
  activation at 1000 µM: 61.1%

## CCCCCC(C=O)=Cc1ccccc1 [alpha-Amylcinnamaldehyde]
TRPA1V1; Table 1(c), 1 mM
  A1V1 activation, % of agonist value: 82.7%
Human TRPA1; [3]
  activation at 1000 µM: 86.6%

## CCCC(=O)OCc1ccc(OC)cc1 [p-Methoxybenzyl butyrate]
TRPA1V1; Table 1(e), 1 mM
  A1V1 activation, % of agonist value: 58.97%
Human TRPA1; [4]
  activation at 1000 µM: 34%

## COc1ccc(COC=O)cc1 [Anisyl formate]
TRPA1V1; Table 1(c), 1 mM
  A1V1 activation, % of agonist value: 78.2%
Human TRPA1; [2]
  A1 activation, % of agonist value: 89.5%

## COC(C=C(C)CCC=C(C)C)OC [Citral dimethyl acetal]
TRPA1V1; Table 1(e), 1 mM
  A1V1 activation, % of agonist value: 137.2%
Human TRPA1; [4]
  activation at 1000 µM: 102%

## Cc1cccc(C)c1S [2,6-Dimethylthiophenol]
TRPA1V1; Table 1(c), 1 mM
  A1V1 activation, % of agonist value: 85.5%
Human TRPA1; [3]
  activation at 1000 µM: 84.4%

## CCCCC/C=C/C=C/C=O [(E,E)-2,4-Decadienal]
TRPA1V1; Table 1(d), 1 mM
  A1V1 activation, % of agonist value: 46%
Human TRPA1; [1]
  activation at 1000 µM: 142%

## CCOC(=O)CCc1ccccc1 [Ethyl hydrocinnamate]
TRPA1V1; Table 1(d), 1 mM
  A1V1 activation, % of agonist value: 50.9%
Human TRPA1; [1]
  activation at 1000 µM: 72.2%
